In patent publication US20260109689A1, “NOVEL COMPOUNDS” (Hoffmann-La Roche Inc., priority 2023, published 2026):

Assays:
mouse P-gp = test: Transcellular P-gp assay (mouse P-gp); format: in vitro ADME; details: LLC-PK1, first value of cell, transfected LLC-PK cells; for efflux ratio: read-out: Apical Efflux Ratio; for Papp: read-out: Permeability
Excerpt: (§1) The general assay uses transfected LLC-PKT cells (porcine kidney epithelial cells) over-expressing human or mouse P-gp, cultured on 96 well semi-permeable filter membrane plates, where they form a polarized monolayer with tight junctions, and act as a barrier between the apical and basolateral compartment.
(§2) P-gp is expressed in the apical-facing membrane of the monolayer.
(§3) The tightness of the cell monolayer and functional activity of P-gp are confirmed by addition of a cell-impermeable marker, Lucifer yellow, and a reference P-gp substrate, edoxaban, respectively.

human P-gp = molecular target: T1, human P-gp (Homo sapiens, UniProt P08183); test: Transcellular P-gp assay (human P-gp); format: in vitro ADME; details: LLC-PK1, second value of cell, transfected LLC-PK cells; for efflux ratio: read-out: Apical Efflux Ratio; for Papp: read-out: Permeability
T1 construct: expressed in transfected cells; host or cells: LLC-PKT (so in the source) porcine kidney epithelial cells
Excerpt: as §1, §2, §3

[1] = molecular target: T2, hERG cardiac potassium channel (Homo sapiens, UniProt Q12809); test: hERG screening assay (automated patch clamp); format: cell-based; details: CHO crelox hERG cells, whole-cell patch clamp, 35-37° C.
T2 construct: Evotec (cryopreserved cells) ATCC PTA-6812; host or cells: CHO crelox hERG cell line (Chinese hamster)
Excerpt: In the drug development process of small molecules, one of the most frequent adverse side effects, leading to the failure of drugs, is the cardiac arrhythmias. Such failure is often related to the capacity of the drug to inhibit the human ether-a-go-go-related gene (hERG) cardiac potassium channel. Having no or low inhibition of the hERG cardiac potassium channel is therefore considered as beneficial.
The CHO crelox hERG cell line (ATCC reference Nr. PTA-6812, female Chinese hamster cells) was generated and validated at Roche. Ready-to-use frozen instant CHO-hERG cells were cryopreserved at Evotec (Germany) and used directly in the experiments.
The extracellular solution contains (in mM): NaCl 150; KCl 4; CaCl2 1; MgCl2 1; HEPES 10; pH 7.2-7.4 with NaOH, osmolarity 290-330 mOsm. […]
The effects of a compound on hERG K+-currents parameters will be evaluated at 2 concentrations in at least 4 cells.
The hERG test is performed using automated patch clamp system SynchroPatch® 384 (Nanion Technologies GmbH, Germany). K+ currents are measured with the patch-voltage-clamp technique in the whole-cell configuration at 35-37° C. […]
The amplitudes of IKhERG were recorded in each concentration of drug and they were compared to the vehicle control values (taken as 100%) to define fractional blocks. […]

T1 sequence (P08183 whole entry): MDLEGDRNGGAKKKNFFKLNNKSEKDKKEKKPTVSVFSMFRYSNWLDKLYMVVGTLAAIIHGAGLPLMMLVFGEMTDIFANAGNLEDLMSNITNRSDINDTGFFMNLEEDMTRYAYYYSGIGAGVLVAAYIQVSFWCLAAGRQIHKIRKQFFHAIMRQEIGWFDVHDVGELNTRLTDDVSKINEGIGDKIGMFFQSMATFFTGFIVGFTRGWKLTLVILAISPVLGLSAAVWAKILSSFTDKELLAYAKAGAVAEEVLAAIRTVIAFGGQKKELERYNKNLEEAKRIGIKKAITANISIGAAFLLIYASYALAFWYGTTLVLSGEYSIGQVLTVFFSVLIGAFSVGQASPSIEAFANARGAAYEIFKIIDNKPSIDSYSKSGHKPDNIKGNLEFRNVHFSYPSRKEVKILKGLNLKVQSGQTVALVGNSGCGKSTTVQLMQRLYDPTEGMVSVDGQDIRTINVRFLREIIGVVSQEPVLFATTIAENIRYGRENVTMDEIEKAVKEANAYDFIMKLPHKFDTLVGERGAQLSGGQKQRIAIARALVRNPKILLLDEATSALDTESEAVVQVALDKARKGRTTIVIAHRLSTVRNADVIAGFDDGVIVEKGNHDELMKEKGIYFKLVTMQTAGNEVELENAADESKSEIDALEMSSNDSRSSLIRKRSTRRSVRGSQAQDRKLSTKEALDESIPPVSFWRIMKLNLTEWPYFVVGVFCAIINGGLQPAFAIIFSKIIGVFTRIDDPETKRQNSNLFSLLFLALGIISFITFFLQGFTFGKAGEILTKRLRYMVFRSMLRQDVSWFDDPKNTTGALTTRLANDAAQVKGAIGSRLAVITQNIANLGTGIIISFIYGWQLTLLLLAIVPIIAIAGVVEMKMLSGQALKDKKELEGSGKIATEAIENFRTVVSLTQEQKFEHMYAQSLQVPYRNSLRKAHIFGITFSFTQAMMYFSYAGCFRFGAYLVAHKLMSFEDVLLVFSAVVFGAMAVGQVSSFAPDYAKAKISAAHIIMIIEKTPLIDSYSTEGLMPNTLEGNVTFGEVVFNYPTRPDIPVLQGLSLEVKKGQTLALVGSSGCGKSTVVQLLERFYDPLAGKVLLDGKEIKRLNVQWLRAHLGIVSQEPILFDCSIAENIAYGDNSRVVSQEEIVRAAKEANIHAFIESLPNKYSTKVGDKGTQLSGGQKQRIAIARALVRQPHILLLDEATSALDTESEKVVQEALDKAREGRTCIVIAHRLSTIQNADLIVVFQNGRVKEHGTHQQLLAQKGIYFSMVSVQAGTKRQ
T2 sequence (Q12809 whole entry): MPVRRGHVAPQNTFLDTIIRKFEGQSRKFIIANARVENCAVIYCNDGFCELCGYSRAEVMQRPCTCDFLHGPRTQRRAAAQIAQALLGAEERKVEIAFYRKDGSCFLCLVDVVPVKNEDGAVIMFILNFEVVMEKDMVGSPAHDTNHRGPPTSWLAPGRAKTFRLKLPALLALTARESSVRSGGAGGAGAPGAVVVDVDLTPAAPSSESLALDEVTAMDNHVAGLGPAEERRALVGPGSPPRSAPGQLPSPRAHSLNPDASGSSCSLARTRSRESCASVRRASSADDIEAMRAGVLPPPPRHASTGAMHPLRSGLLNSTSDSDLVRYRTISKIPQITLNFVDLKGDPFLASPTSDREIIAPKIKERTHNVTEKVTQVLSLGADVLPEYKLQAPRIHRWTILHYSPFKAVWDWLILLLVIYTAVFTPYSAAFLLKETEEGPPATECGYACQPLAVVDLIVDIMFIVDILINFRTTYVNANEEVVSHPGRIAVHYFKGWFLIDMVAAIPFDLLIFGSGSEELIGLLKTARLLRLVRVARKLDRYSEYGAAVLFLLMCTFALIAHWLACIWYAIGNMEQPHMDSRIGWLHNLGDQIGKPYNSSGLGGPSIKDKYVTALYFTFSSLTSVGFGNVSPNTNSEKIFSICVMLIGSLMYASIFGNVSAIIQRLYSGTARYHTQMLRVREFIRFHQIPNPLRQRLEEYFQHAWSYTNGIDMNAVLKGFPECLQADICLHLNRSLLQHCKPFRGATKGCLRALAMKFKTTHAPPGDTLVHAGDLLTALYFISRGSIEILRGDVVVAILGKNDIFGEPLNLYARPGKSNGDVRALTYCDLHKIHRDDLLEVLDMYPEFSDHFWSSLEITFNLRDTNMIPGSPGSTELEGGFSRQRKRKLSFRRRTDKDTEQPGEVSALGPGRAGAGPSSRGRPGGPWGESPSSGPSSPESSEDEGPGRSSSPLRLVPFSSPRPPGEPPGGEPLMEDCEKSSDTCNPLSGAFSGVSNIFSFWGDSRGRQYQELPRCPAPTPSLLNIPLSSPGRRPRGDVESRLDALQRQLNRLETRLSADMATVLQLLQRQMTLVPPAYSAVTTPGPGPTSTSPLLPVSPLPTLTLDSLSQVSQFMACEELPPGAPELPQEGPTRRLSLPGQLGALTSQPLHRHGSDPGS

Structure (SMILES) | efflux ratio (mouse P-gp) | Papp (mouse P-gp) | efflux ratio (human P-gp) | Papp (human P-gp) | IC20 [1]
Cn1c(-c2ccc3c(c2O)CCC3)nnc(N[C@@H]2CCCN(CCO)C2)c1=O [Example 2, 6-[[(3R)-1-(2-Hydroxyethyl)-3-piperidyl]amino]-3-(4-hydroxyindan-5-yl)-4-methyl-1,2,4-triazin-5-one] | 10 | 17 ×10⁻⁶ cm/s | 4.8 | 19 ×10⁻⁶ cm/s | > 10 µM
Cn1c(-c2ccc3c(c2O)CCO3)nnc(N[C@@H]2CCCN(CCO)C2)c1=O [Example 1, 3-(4-Hydroxy-2,3-dihydrobenzofuran-5-yl)-6-[[(3R)-1-(2-hydroxyethyl)-3-piperidyl]amino]-4-methyl-1,2,4-triazin-5-one] | 8.6 | 4.7 ×10⁻⁶ cm/s | 4.8 | 4.7 ×10⁻⁶ cm/s | > 10 µM
CCN1CCC[C@@H](Nc2nnc(-c3ccc4c(c3O)CCO4)n(C)c2=O)C1 [RE-A, 6-[[(3R)-1-Ethyl-3-piperidyl]amino]-3-(4-hydroxy-2,3-dihydrobenzofuran-5-yl)-4-methyl-1,2,4-triazin-5-one, reference compound] | 2 | 23.2 ×10⁻⁶ cm/s | 1.2 | 25 ×10⁻⁶ cm/s | 
